Test results taken from ChEMBL document CHEMBL1136293, “Synthesis and evaluation of tripeptidyl alpha-ketoamides as human rhinovirus 3C protease inhibitors” (Bioorg Med Chem Lett, 2003).

Legend:
rhinovirus B14 = test: (§1) Antiviral activity against human rhinovirus-14 (HRV-14) in HeLa-cells using cell assay; format: functional, organism-based, human rhinovirus type 14; details: Rhinovirus B
HeLa [1] = test: Cytotoxicity against HeLa cells was determined by using XTT cytotoxicity assay; format: functional; details: Homo sapiens, read-out: TC50 (the source's name)
HeLa [2] = test: Antiviral activity against human rhinovirus-16 (HRV-16) in HeLa-cells using cell assay; format: functional, cell-based
[3] = molecular target: T1, Human rhinovirus A protease (Human rhinovirus sp., UniProt Q4U254); test: Antiviral activity against human rhinovirus-14 (HRV-14) 3C protease using enzyme assay; format: functional, rhinovirus B14
T1 sequence (Q4U254 whole entry): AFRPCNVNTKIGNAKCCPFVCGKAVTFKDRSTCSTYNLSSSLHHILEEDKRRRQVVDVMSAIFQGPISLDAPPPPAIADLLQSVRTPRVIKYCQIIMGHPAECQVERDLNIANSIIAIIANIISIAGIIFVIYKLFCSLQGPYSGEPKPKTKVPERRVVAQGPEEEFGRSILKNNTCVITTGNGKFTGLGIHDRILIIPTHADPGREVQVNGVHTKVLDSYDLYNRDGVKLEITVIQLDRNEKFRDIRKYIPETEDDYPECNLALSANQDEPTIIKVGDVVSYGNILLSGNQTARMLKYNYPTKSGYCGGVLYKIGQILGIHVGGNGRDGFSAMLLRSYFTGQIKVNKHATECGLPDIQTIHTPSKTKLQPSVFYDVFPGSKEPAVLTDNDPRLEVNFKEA

HeLa [4] = test: as §1; format: functional, cell-based
HeLa [5] = test: Antiviral activity against human rhinovirus-16 (HRV-16) in HeLa-cells using cell assay; inactive; format: functional, cell-based
[6] = molecular target: T1, Human rhinovirus A protease; test: Antiviral activity against human rhinovirus-14 (HRV-14) 3C protease using enzyme assay; inactive; format: functional, rhinovirus B14

## CCCC(NC(=O)C(Cc1ccccc1)NC(=O)[C@@H](NC(=O)OC(C)C)C(C)C)C(=O)C(=O)N[C@@H](C)c1ccccc1 (some centres not stated)
Rhinovirus B14
  EC50: 1 µM
HeLa [1]
  CC50: 62 µM
HeLa [2]
  EC50: 10.1 µM
[3]
  Ki: 0.5 µM

## CCC[C@H](NC(=O)[C@H](Cc1ccccc1)NC(=O)[C@@H](NC(=O)OC(C)C)C(C)C)C(=O)C(=O)N[C@@H](C)c1ccccc1
Rhinovirus B14
  EC50: 0.85 µM
HeLa [1]
  CC50: > 100 µM
HeLa [2]
  EC50: ~10 µM
[3]
  IC50: 0.17 µM
  Ki: 0.17 µM

## CCC[C@H](NC(=O)[C@H](Cc1ccccc1)NC(=O)[C@@H](NC(=O)OC(C)C)C(C)C)C(=O)C(=O)N[C@H](C)c1ccccc1
Rhinovirus B14
  EC50: 11.1 µM
[3]
  Ki: 6.5 µM

## CCC[C@H](NC(=O)[C@H](Cc1ccccc1)NC(=O)[C@@H](NC(=O)OC(C)C)C(C)C)C(=O)C(=O)N[C@@H](C)C1CCCCC1
Rhinovirus B14
  EC50: > 20 µM
HeLa [1]
  CC50: 54.6 µM
[3]
  Ki: 6.5 µM

## CCCC(NC(=O)C1CCCN1C(=O)[C@@H](NC(=O)OC(C)C)C(C)C)C(=O)C(=O)N[C@@H](C)c1ccccc1 (some centres not stated)
Rhinovirus B14
  EC50: 10.4 µM
HeLa [1]
  CC50: > 100 µM
HeLa [2]
  EC50: 43.3 µM
[3]
  Ki: 17.4 µM

## CCC[C@H](NC(=O)[C@H](Cc1ccccc1)NC(=O)[C@@H](NC(=O)OC(C)(C)C)C(C)C)C(=O)N[C@@H](C)c1ccccc1
Rhinovirus B14
  EC50: > 20 µM
HeLa [1]
  CC50: > 100 µM
[3]
  Ki: 7.4 µM

## CCC[C@H](NC(=O)[C@H](Cc1ccccc1)NC(=O)[C@@H](NC(=O)OC(C)C)C(C)C)C(=O)C(=O)NCc1ccccc1
Rhinovirus B14
  EC50: 5.3 µM
HeLa [1]
  CC50: > 100 µM
HeLa [4]
  IC50: 2.7 µM
[3]
  Ki: 4.6 µM

## CCC[C@H](NC(=O)[C@H](Cc1ccccc1)NC(=O)[C@@H](NC(=O)OC(C)(C)C)C(C)C)C(=O)NC[C@H](C)c1ccccc1
Rhinovirus B14
  EC50: > 15 µM
HeLa [1]
  CC50: > 100 µM
[3]
  Ki: 29.1 µM

## CCCC(NC(=O)C(Cc1ccc(F)cc1)NC(=O)[C@@H](NC(=O)OC(C)C)C(C)C)C(=O)C(=O)N[C@@H](C)c1ccccc1 (some centres not stated)
Rhinovirus B14
  EC50: 2.1 µM
HeLa [1]
  CC50: > 100 µM
HeLa [2]
  EC50: 37.3 µM
[3]
  Ki: 1.36 µM

## CCCC(NC(=O)[C@@H]1[C@H]2CC[C@H](F)[C@H]2CN1C(=O)[C@@H](NC(=O)OC(C)C)C(C)C)C(=O)C(=O)N[C@@H](C)c1ccccc1 (some centres not stated)
Rhinovirus B14
  EC50: 5.8 µM
HeLa [1]
  CC50: 82 µM
[3]
  Ki: 5.5 µM

## CCC[C@H](NC(=O)[C@H](Cc1ccccc1)NC(=O)[C@@H](NC(=O)OC(C)(C)C)C(C)C)C(=O)C(=O)N[C@H](C)c1ccccc1
Rhinovirus B14
  EC50: 1.3 µM
HeLa [1]
  CC50: 30.3 µM
[3]
  Ki: 0.71 µM

## CCCC(NC(=O)C1(NC(=O)[C@@H](NC(=O)OC(C)C)C(C)C)CCCC1)C(=O)C(=O)N[C@@H](C)c1ccccc1 (some centres not stated)
Rhinovirus B14
  EC50: > 20 µM
HeLa [1]
  CC50: > 100 µM
HeLa [5]
  EC50: Not Active
[6]
  Ki: Not Active

## CCCC(NC(=O)[C@@H]1[C@H]2CCC[C@H]2CN1C(=O)[C@@H](NC(=O)OC(C)C)C(C)(C)C)C(=O)C(=O)N[C@@H](C)c1ccccc1 (some centres not stated)
Rhinovirus B14
  EC50: 7.7 µM
HeLa [1]
  CC50: 57.8 µM
HeLa [2]
  EC50: 25.7 µM

## CCCC(NC(=O)[C@@H]1[C@H]2CC[C@H](F)[C@H]2CN1C(=O)[C@@H](NC(=O)OC(C)C)C(C)(C)C)C(=O)C(=O)N[C@@H](C)c1ccccc1 (some centres not stated)
Rhinovirus B14
  EC50: 10 µM
HeLa [1]
  CC50: 60.4 µM
[3]
  Ki: 9.8 µM

## CCCC(NC(=O)[C@@H]1[C@H]2CCC[C@H]2CN1C(=O)[C@@H](NC(=O)OC(C)C)C(C)C)C(=O)C(=O)N[C@@H](C)c1ccccc1 (some centres not stated)
Rhinovirus B14
  EC50: 2.2 µM
HeLa [1]
  CC50: 65.4 µM
HeLa [2]
  EC50: ~10 µM
[3]
  Ki: 3 µM
